The text below walks through data of article PMC3264552, “Expression in Antennae and Reproductive Organs Suggests a Dual Role of an Odorant-Binding Protein in Two Sibling Helicoverpa Species” (PLoS ONE, 2012).

For assay [1], the target named is T1, recombinant HarmOBP10 (Helicoverpa armigera, UniProt G9I573). Description: Competitive fluorescence binding assay (displacement of 1-NPN from HarmOBP10). The settings on record: for activity at 6 µM / activity at 1.6 µM / activity at 16 µM: read-out: % at max (percent of fluorescence measured at the maximum concentration); for activity at 1.6 µM: max conc 1.6 (titration 0.5–1.6 µM); for quality as ligand of OBP10, in words: authors' comment on Table 1. On the procedure:
Emission fluorescence spectra were recorded on a Hitachi F-4500 at 25°C in a right angle configuration, with a 1 cm light path quartz cuvette and 5 nm slits for both excitation and emission. The protein was dissolved in 50 mM Tris-HCl buffer, pH 7.4, while ligands were added as 1 mM methanol solutions.
The probe was excited at 337 nm and emission spectra were recorded between 380 and 450 nm. […] Dissociation constant for 1-NPN and the stoichiometry of binding was obtained processing the data with Prism software.

In assay [2] the target is T1, recombinant HarmOBP10. Description: Fluorescence binding assay of the probe 1-NPN to recombinant HarmOBP10. On the procedure: Emission fluorescence spectra were recorded on a Hitachi F-4500 at 25°C in a right angle configuration, with a 1 cm light path quartz cuvette and 5 nm slits for both excitation and emission. […]
The probe was excited at 337 nm and emission spectra were recorded between 380 and 450 nm. […] Dissociation constant for 1-NPN and the stoichiometry of binding was obtained processing the data with Prism software. Dissociation constants of the competitors were calculated from the corresponding IC50 values (concentrations of ligands halving the initial fluorescence value of 1-NPN), using the equation: KD = [IC50]/1+[1-NPN]/K1-NPN, [1-NPN] being the free concentration of 1-NPN and K1-NPN being the dissociation constant of the complex protein/1-NPN.

[3] abbreviates: max conc 6 (titration 0.5–6 µM), protein and 1-NPN both 2 µM, percent of fluorescence without competitor.
Setting [4] is: protein and 1-NPN both 2 µM, percent of fluorescence without competitor.
Setting [5] is: max conc 16 (titration 2–16 µM), protein and 1-NPN both 2 µM, percent of fluorescence without competitor.
[6] abbreviates: calculated from IC50: KD = [IC50]/1+[1-NPN]/K1-NPN, read-out: KD (calculated dissociation constant).
Where [7] appears, read: protein and 1-NPN both 2 µM, Tris pH 7.4, unit from method text, not in table, read-out: IC50 (concentration of ligand halving the initial fluorescence value).

pIC50, pKd: −log10 of the molar value. Like-named read-outs stand apart in the source and are kept apart here. A value given as a limit tells only on which side of the number the result lay.

T1 sequence (G9I573 entry or part of it): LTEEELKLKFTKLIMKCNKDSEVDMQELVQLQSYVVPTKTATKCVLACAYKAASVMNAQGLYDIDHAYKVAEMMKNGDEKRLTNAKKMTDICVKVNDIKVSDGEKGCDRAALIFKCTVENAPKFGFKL

`CCCCC/C=C\C/C=C\CCCCCCCC(=O)O` [Linoleic acid]: on recombinant HarmOBP10 [1] (setting [3]), the activity at 6 µM was 56%.

With `CCCC/C=C\CCCCCCCCCC=O` [(Z)-11-Hexadecenal], the activity at 1.6 µM at recombinant HarmOBP10 [1] (setting [4]) was 76%. As to `CCCCCCCCCC(=O)O` [Decanoic acid], at recombinant HarmOBP10 [1] (setting [3]), the activity at 6 µM worked out at 62%. On to `CCCCCC/C=C\CCCCCCCCO` [(Z)-9-Hexadecen-1-ol], for which, at recombinant HarmOBP10 [1] (setting [4]), the activity at 1.6 µM stood at 65%.

In the case of `CC(=O)OCCC(C)CCCC(C)C` (stereo not shown) [3,7-Dimethyloctyl acetate], the activity at 16 µM on recombinant HarmOBP10 [1] (setting [5]) stood at 59%. Still for that read-out and setting: then `COC(=O)C=Cc1ccccc1` [Methyl cinnamate], with above 100%. As for `CC(C)CCCC(C)CCOC(=O)c1ccccc1` (stereo not shown) [3,7-Dimethyloctyl benzoate], at recombinant HarmOBP10 [1] (setting [6]), the pKd is 5.33. On recombinant HarmOBP10 [1] (setting [5]), the activity at 16 µM is 34%. In addition, at recombinant HarmOBP10 [1] (setting [7]), the pIC50 is 5.22. As to `CCCCCCCCC=O` [Nonanal], at recombinant HarmOBP10 [1] (setting [5]), the activity at 16 µM was above 100%. With `Cc1ccc2ccccc2c1` [2-Methylnaphthalene], the activity at 16 µM on recombinant HarmOBP10 [1] worked out at 75%.

For the compound `COc1cc(/C=C/C=O)ccc1O` [Coniferyl aldehyde], on recombinant HarmOBP10 [1], the pIC50 is 5.12, the pKd is 5.24 and the activity at 16 µM amounted to 30%.

As to `CC(C)=CCC/C(C)=C/C=O` [Citral], on recombinant HarmOBP10 [1], the activity at 16 µM came out at 66%.

On to `CC(C)(C)c1ccc(C(=O)c2ccccc2)cc1` [p-tert-Butylbenzophenone], for which the “quality as ligand of OBP10, in words” value at recombinant HarmOBP10 [1] is “Even better ligands”. Moreover, the pKd on recombinant HarmOBP10 [1] (setting [6]) was 5.59. Moreover, the “% at max (percent of fluorescence measured at the maximum concentration)” value on recombinant HarmOBP10 [1] (setting [5]) came to 13%. Also, at recombinant HarmOBP10 [1] (setting [7]), the pIC50 is 5.48. On to `CCCCCCCCCCO` [1-Decanol], for which the activity at 6 µM at recombinant HarmOBP10 [1] (setting [3]) is 63%. Take `CC(CCCC(C)(C)O)CC(=O)O` (stereo not shown) [Hydroxycitronellic acid]: the pKd at recombinant HarmOBP10 [1] (setting [6]) is 4.91. Also, the “% at max (percent of fluorescence measured at the maximum concentration)” value at recombinant HarmOBP10 [1] (setting [5]) amounted to 50%. The pIC50 at recombinant HarmOBP10 [1] (setting [7]) is 4.80. Consider `CCCCCCCCCC(=O)OCC` [Ethyl decanoate], for which, at recombinant HarmOBP10 [1] (setting [6]), the pKd is 5.37. Further, on recombinant HarmOBP10 [1] (setting [7]), the pIC50 was 5.26. On recombinant HarmOBP10 [1], the activity at 6 µM was 44%. On to `O=C(O)CCCc1ccccc1` [4-Phenylbutyric acid], for which the activity at 16 µM on recombinant HarmOBP10 [1] (setting [5]) was determined as 73%.

Turning to `CCCCCCCCCCCCCCCC(=O)OCC` [Ethyl palmitate], on recombinant HarmOBP10 [1] (setting [3]), the activity at 6 µM was 69%. Regarding `C=CCc1ccc(O)c(OC)c1` [Eugenol], at recombinant HarmOBP10 [1], the activity at 16 µM was found to be 80%. On to `CC(=O)OCCc1ccccc1` [2-Phenylethyl acetate], for which the activity at 16 µM at recombinant HarmOBP10 [1] (setting [5]) amounted to 77%. Still for that read-out and setting: the value for `CCCCCCCCCCCC(C)=O` [2-Tridecanone] was 60%; that for `COc1ccc(-c2ccccc2)cc1` [4-Phenylanisole] was 65%. As for `CC(C)=CCCC(C)=CC#N` [Citralva], at recombinant HarmOBP10 [1] (setting [5]), the “% at max (percent of fluorescence measured at the maximum concentration)” value was determined as 60%. As to `CCCCCCCCCCCCCO` [1-Tridecanol], the activity at 6 µM on recombinant HarmOBP10 [1] (setting [3]) was found to be 85%.

For the compound `CC(CC=O)CCCC(C)(C)O` (stereo not shown) [Hydroxycitronellal], the pKd at recombinant HarmOBP10 [1] (setting [6]) was 4.98. The activity at 16 µM on recombinant HarmOBP10 [1] (setting [5]) amounted to 48%. For the same compound, the pIC50 at recombinant HarmOBP10 [1] (setting [7]) is 4.87.

Regarding `CCCCCCCCCCCCCC(=O)OCC` [Ethyl myristate], on recombinant HarmOBP10 [1] (setting [3]), the activity at 6 µM stood at 73%.

On to `CCCCCCCCCC=O` [Decanal], for which, on recombinant HarmOBP10 [1] (setting [5]), the activity at 16 µM was above 100%. With `O=C(O)/C=C/c1ccccc1` [Cinnamic acid], the activity at 16 µM on recombinant HarmOBP10 [1] turned out to be 74%.

Consider `CCCCCCCCCCCCCCCCCCO` [1-Octadecanol], for which the activity at 6 µM on recombinant HarmOBP10 [1] (setting [3]) came out at 56%. As for `C=CCCCCCCCCCC` [1-Dodecene], on recombinant HarmOBP10 [1], the pIC50 is 5.22; the pKd is 5.33; the “quality as ligand of OBP10, in words” value is reported as “rather good ligand”; the activity at 6 µM stood at 50%. With `CC(C)=CCC/C(C)=C/CC/C(C)=C/CO` [Farnesol], the pKd on recombinant HarmOBP10 [1] (setting [6]) is 5.27. Moreover, the activity at 6 µM on recombinant HarmOBP10 [1] is 54%. `CCCCCCCCCCC(C)=O` [2-Dodecanone]: at recombinant HarmOBP10 [1] (setting [6]), the pKd is 4.88. On recombinant HarmOBP10 [1] (setting [5]), the activity at 16 µM was determined as 51%. On to `CCCCCCCCCCCCS` [1-Dodecanthiol], for which the activity at 6 µM at recombinant HarmOBP10 [1] (setting [3]) was determined as 62%. For the compound `CCCCCC/C=C\CCCCCCCC=O` [(Z)-9-Hexadecenal], at recombinant HarmOBP10 [1] (setting [4]), the activity at 1.6 µM is 73%. Turning to `CC(C)=CCC/C(C)=C/CO` [Geraniol], on recombinant HarmOBP10 [1] (setting [5]), the activity at 16 µM turned out to be 69%. As for `c1ccc(Nc2cccc3ccccc23)cc1` [1-NPN], at recombinant HarmOBP10 [2] (2 µM protein in 50 mM Tris-HCl, pH 7.4, single binding site, averages of three replicates, read-out: dissociation constant of 1-NPN), the pKd is 5.24. In addition, the “effect of pH on affinity of 1-NPN” value at recombinant HarmOBP10 [2] (pH range from 5 to 9.4) is on record as “marked loss of affinity in acidic conditions”. Regarding `CCCCCCOC(=O)c1ccccc1` [n-Hexyl benzoate], at recombinant HarmOBP10 [1] (setting [6]), the pKd was 5.24. Also, at recombinant HarmOBP10 [1] (setting [5]), the “% at max (percent of fluorescence measured at the maximum concentration)” value stood at 35%. In addition, the pIC50 on recombinant HarmOBP10 [1] (setting [7]) is 5.12. As for `CCCCCCCCCCCCCCCCO` [1-Hexadecanol], the activity at 6 µM on recombinant HarmOBP10 [1] (setting [3]) is 55%.

Regarding `CCCCCCCCCCCC=O` [Dodecanal], the activity at 6 µM on recombinant HarmOBP10 [1] (setting [3]) is 73%. On to `COc1cc(CC(=O)O)ccc1O` [Homovanillic acid], for which the activity at 16 µM on recombinant HarmOBP10 [1] was 66%. `COC(C=O)=Cc1ccccc1` [a-Methoxycinnamaldehyde]: the pKd on recombinant HarmOBP10 [1] (setting [6]) was 5.01. In addition, the “% at max (percent of fluorescence measured at the maximum concentration)” value on recombinant HarmOBP10 [1] (setting [5]) turned out to be 37%. For the same compound, on recombinant HarmOBP10 [1] (setting [7]), the pIC50 is 4.90. Turning to `CCCCCCCCOC(=O)c1ccccc1` [n-Octyl benzoate], the “quality as ligand of OBP10, in words” value at recombinant HarmOBP10 [1] is given as “the best”. Besides, the pKd at recombinant HarmOBP10 [1] (setting [6]) is 5.51. For the same compound, the “% at max (percent of fluorescence measured at the maximum concentration)” value at recombinant HarmOBP10 [1] (setting [5]) was 29%. Further, on recombinant HarmOBP10 [1] (setting [7]), the pIC50 was 5.40. Take `CC(C=O)Cc1ccc(C(C)C)cc1` (stereo not shown) [Cyclamen aldehyde]: at recombinant HarmOBP10 [1] (setting [5]), the “% at max (percent of fluorescence measured at the maximum concentration)” value is above 100%. In the case of `CCCCOC(=O)c1ccc(C(C)(C)C)cc1` [Butyl p-tert-butylbenzoate], the pKd on recombinant HarmOBP10 [1] (setting [6]) was 4.96. At recombinant HarmOBP10 [1] (setting [5]), the “% at max (percent of fluorescence measured at the maximum concentration)” value is listed as 48%. Besides, at recombinant HarmOBP10 [1] (setting [7]), the pIC50 is 4.85. For `CCCCOC(=O)C=Cc1ccccc1` [n-Butyl cinnamate], in that order: 5.01, 42% and 4.90. For `CCCCCCCCCCCCCCO` [1-Tetradecanol], at recombinant HarmOBP10 [1], the pIC50 is 5.74; the pKd was 5.85; the “quality as ligand of OBP10, in words” value was “maximum of affinity”; the activity at 6 µM worked out at 36%. As for `CCCCCCCCCCCCOC(C)=O` [Dodecyl acetate], the activity at 16 µM at recombinant HarmOBP10 [1] (setting [5]) was above 100%.

Consider `CCCC/C=C\CCCCCCCCCCO` [(Z)-11-Hexadecen-1-ol], for which, at recombinant HarmOBP10 [1] (setting [4]), the activity at 1.6 µM is 74%.

In the case of `CCCCC/C(C=O)=C/c1ccccc1` [a-Amylcinnamaldehyde], at recombinant HarmOBP10 [1], the “quality as ligand of OBP10, in words” value is given as “Even better ligands”. Besides, the pKd on recombinant HarmOBP10 [1] (setting [6]) is 5.57. In addition, the “% at max (percent of fluorescence measured at the maximum concentration)” value at recombinant HarmOBP10 [1] (setting [5]) worked out at 13%. The pIC50 on recombinant HarmOBP10 [1] (setting [7]) was 5.46. With `CCCCOC(=O)c1ccccc1` [n-Butyl benzoate], the “quality as ligand of OBP10, in words” value at recombinant HarmOBP10 [1] is “poor ligand”. Further, the activity at 16 µM at recombinant HarmOBP10 [1] (setting [5]) was 62%. In the case of `CC(C)c1ccc(C=O)cc1` [p-Isopropylbenzaldehyde], on recombinant HarmOBP10 [1] (setting [5]), the “% at max (percent of fluorescence measured at the maximum concentration)” value is reported as 77%. `CCCCCCCCCCCC(=O)OCC` [Ethyl laurate]: on recombinant HarmOBP10 [1] (setting [3]), the activity at 6 µM was 70%.
